How the values were obtained:
[1] = test system: FGFR2-overexpressed SNU-16 gastric cancer cell line derived xenograft tumors; type: in vivo; details: 10 mg/kg oral BID
Description: The cells were harvested in 90% confluence and no less than 90% viability, and then counted. […] Mice were inoculated subcutaneously into the right flank with 200 uL of 8×10^6 SNU-16 cells resuspended in 50% Matrigel (purchased from Corning). […] Dosing was initiated on day 0 and effects on tumor growth were evaluated by measuring the percentage of tumor growth inhibition (TGI) at the end of the study. Tolerability was assessed by body weight loss, lethality, and clinical signs of adverse treatment-related side effects. Tumor volume and body weight were measured twice per week during the administration period. The percentage of TGI was determined on day 25 after treatment. The difference between the mean value of tumor volume in the treatment group and that in the vehicle group was analyzed for significance using one-way ANOVA (followed by Dennett's test) at each time point and a P<0.05 was considered to be statistically significant.

[2] = molecular target: human recombinant FGFR1 catalytic domain protein (amino acid 308-731) (Homo sapiens (Human), UniProt P11362); assay: FGFR1 activity inhibition test (HTRF kinase assay); type: biochemical; details: 40 μM ATP
Sequence of human recombinant FGFR1 catalytic domain protein (amino acid 308-731) (P11362 other isoform, or with tags, fused parts or gaps): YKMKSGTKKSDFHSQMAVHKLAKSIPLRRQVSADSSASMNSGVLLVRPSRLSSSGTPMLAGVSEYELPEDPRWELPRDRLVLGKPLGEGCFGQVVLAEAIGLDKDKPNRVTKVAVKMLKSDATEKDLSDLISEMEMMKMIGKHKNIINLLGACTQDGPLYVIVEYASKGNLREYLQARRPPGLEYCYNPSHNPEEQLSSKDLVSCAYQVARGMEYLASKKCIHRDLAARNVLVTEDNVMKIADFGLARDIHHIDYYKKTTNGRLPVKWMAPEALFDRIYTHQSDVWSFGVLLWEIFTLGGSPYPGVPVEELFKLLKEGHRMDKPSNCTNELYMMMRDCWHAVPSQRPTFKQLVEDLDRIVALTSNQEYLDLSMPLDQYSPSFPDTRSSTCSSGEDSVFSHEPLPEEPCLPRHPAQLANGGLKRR
Description: (§1) The effect of the compounds of the present invention on the in vitro activity of FGFR was assessed by measuring the phosphorylation level of the substrate in a kinase reaction using the HTRF kinase assay kit (Table 1).
(§2) If the IC50 value of a compound is very low, the initial concentration of the compound can be lowered.
(§3) The IC50 value of the compound was calculated from the 10 concentration points using the XLfit software in Excel by the following formula: Y=Bottom+(Top−Bottom)/(1+10^((log IC50−X)*slope factor))
(§4) Where Y is the percentage of inhibition, Bottom is the bottom platform value of the S-curve, Top is the top platform value of the S-curve, X is the logarithm of the concentration of the compound to be tested, and slope factor is the slope coefficient of the curve.

[3] = molecular target: human recombinant FGFR2 catalytic domain protein (amino acid 400-821) (Homo sapiens (Human), UniProt P21802); assay: FGFR2 activity inhibition test (HTRF kinase assay); type: biochemical; details: 50 μM ATP
Sequence of human recombinant FGFR2 catalytic domain protein (amino acid 400-821) (P21802 400-821): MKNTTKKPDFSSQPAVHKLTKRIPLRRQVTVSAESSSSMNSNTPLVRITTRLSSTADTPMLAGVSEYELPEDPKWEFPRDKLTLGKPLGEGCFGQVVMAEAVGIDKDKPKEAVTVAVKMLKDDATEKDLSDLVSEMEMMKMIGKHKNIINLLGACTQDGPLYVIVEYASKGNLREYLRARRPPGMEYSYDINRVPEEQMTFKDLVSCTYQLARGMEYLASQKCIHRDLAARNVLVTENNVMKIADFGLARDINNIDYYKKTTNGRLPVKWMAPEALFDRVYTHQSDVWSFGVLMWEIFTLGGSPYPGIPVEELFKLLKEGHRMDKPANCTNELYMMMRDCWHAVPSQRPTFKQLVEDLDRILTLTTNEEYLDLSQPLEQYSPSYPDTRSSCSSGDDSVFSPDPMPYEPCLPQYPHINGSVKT
Description: as §1, §2, §3, §4

[4] = molecular target: human recombinant FGFR3 catalytic domain protein (amino acid 399-806) (Homo sapiens (Human), UniProt P22607); assay: FGFR3 activity inhibition test (HTRF kinase assay); type: biochemical; details: 90 μM ATP
Sequence of human recombinant FGFR3 catalytic domain protein (amino acid 399-806) (P22607 399-806): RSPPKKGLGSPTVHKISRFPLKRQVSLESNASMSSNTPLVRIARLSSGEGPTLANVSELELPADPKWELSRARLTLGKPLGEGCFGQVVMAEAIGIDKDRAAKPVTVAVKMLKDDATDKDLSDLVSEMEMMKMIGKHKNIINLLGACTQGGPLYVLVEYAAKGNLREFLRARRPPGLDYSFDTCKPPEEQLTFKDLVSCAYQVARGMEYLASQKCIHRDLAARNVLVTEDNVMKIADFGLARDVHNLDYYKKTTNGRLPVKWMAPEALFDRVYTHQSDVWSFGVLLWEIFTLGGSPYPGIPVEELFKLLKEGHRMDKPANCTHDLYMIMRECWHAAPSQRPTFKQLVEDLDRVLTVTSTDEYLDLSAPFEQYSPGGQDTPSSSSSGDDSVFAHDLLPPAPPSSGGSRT
Description: as §1, §2, §3, §4

[5] = molecular target: human recombinant FGFR4 catalytic domain protein (amino acid 460-802) (Homo sapiens (Human), UniProt P22455); assay: FGFR4 activity inhibition test (HTRF kinase assay); type: biochemical; details: 90 μM ATP
Sequence of human recombinant FGFR4 catalytic domain protein (amino acid 460-802) (P22455 460-802): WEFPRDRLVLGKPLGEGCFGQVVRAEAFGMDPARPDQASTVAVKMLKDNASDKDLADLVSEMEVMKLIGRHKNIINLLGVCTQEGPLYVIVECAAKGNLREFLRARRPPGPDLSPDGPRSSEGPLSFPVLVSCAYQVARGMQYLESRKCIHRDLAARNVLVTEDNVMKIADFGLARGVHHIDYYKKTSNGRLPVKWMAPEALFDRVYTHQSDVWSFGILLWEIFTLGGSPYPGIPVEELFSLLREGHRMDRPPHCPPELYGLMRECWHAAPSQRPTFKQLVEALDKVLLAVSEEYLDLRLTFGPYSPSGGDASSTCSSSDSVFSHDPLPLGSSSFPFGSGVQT
Description: as §1, §2, §3, §4

[6] = test system: Hep3B hepatoma cell line; assay: Inhibition on the proliferation of Hep3B cells (luminescent cell viability assay); type: cell-based; details: Homo sapiens, 72 hours
Description: The effect of the compounds of the present invention on cell proliferation of Hep3B hepatoma cell line was assessed using a luminescent cell viability assay (Table 2).
(§5) CellTilter-Glo reagent (Promega, Cat. No. G7572) consists of CTG lyophilized powder and CTG buffer. Before use, the lyophilized powder needs to be dissolved in the buffer.
(§6) After overnight incubation, 3 μL of DMEM diluted compound was added to each well, which was then gently centrifuged to mix well, and then the 384-well plate was placed in a 37° C., 5% CO2 incubator to continue the culture, and after 72 hours, the plate was taken out and allowed to stand at room temperature for 30 minutes, next added 15 μL of CTG reagent per well, which was warmed up to room temperature, the plate was shaken gently on a shaker for 3 minutes to ensure sufficient cell lysis, allowed to stand 10 minutes to stabilize the luminescence signal, and then read the luminescence signal with EnVision (Perkin Elmer).
as §4

[7] = test system: RT4 bladder cancer cell line; assay: Inhibition on the proliferation of RT4 cells (luminescent cell viability assay); type: cell-based; details: Homo sapiens, RT-4, 72 hours
Description: as §5, §6, §4
The effect of the compounds of the present invention on cell proliferation of the RT4 bladder cancer cell line was assessed using a luminescent cell viability assay (Table 2).
(§7) For the experimental method, please refer to the method for determining the inhibition on the proliferation of Hep3B cells.

[8] = test system: SNU-16 gastric cancer cell line; assay: Inhibition on the proliferation of SNU-16 cells (luminescent cell viability assay); type: cell-based; details: Homo sapiens, 72 hours
Description: as §5, §6, §4
The effect of the compounds of the present invention on cell proliferation of SNU-16 gastric cancer cell line was assessed using a luminescent cell viability assay (Table 2).
as §7

Compound	anti-tumor activity [1]	IC50 [2]	IC50 [3]	IC50 [4]	IC50 [5]	IC50 [6]	IC50 [7]	IC50 [8]
CCN1CCN(c2ccc(Nc3cc(N(C)C(=O)Nc4c(Cl)c(OC)cc(OC)c4Cl)ncn3)cc2)CC1 [BGJ-398, reference compound]	significant anti-tumor activity							
C=CC(=O)N1CC(n2cc(C(N)=O)c(C#Cc3cc(OC)cc(OC)c3)n2)C1 [Compound 3, 1-(1-acryloylazetidin-3-yl)-3-((3,5-dimethoxyphenyl)ethynyl)-1H-pyrazole-4-carboxamide]		100 to 1000 nM	10 to 100 nM	10 to 100 nM	10 to 100 nM			
CC#CC(=O)N1CC[C@H](n2nc(C#Cc3cc(OC)cc(OC)c3)c(C(N)=O)c2N)C1 [Compound 10]		10 to 100 nM			10 to 100 nM	10 to 100 nM	10 to 100 nM	< 10 nM
COc1cc(C#Cc2nn([C@H]3CCN(C#N)C3)c(N)c2C(N)=O)cc(OC)c1 [Compound 12, (S)-5-amino-1-(1-cyanopyrrolidin-3-yl)-3-((3,5-dimethoxyphenyl)ethynyl)-1H-pyrazole-4-carboxamide]		100 to 1000 nM	< 10 nM	< 10 nM	10 to 100 nM	100 to 1000 nM	100 to 1000 nM	
C=CC(=O)N1CC[C@@H](n2nc(C#Cc3cc(OC)cc(OC)c3)c(C(N)=O)c2N)C1 [Compound 13, (R)-1-(1-acryloylpyrrolidin-3-yl)-5-amino-3-((3,5-dimethoxyphenyl)ethynyl)-1H-pyrazole-4-carboxamide]		10 to 100 nM	< 10 nM	< 10 nM	10 to 100 nM			
C=CC(=O)N1CC(n2nc(C#Cc3cc(OC)cc(OC)c3)c(C(N)=O)c2N)C1 [Compound 14, 1-(1-acryloylazetidin-3-yl)-5-amino-3-((3,5-dimethoxyphenyl)ethynyl)-1H-pyrazole-4-carboxamide]		< 10 nM	< 10 nM	< 10 nM	< 10 nM			
C=CC(=O)N1CCC(n2nc(C#Cc3cc(OC)cc(OC)c3)c(C(N)=O)c2N)CC1 [Compound 15, 1-(1-acryloylpiperidin-4-yl)-5-amino-3-((3,5-dimethoxyphenyl)ethynyl)-1H-pyrazole-4-carboxamide]		100 to 1000 nM	10 to 100 nM	10 to 100 nM	10 to 100 nM			
C=CC(=O)N1CCC(Cn2nc(C#Cc3cc(OC)cc(OC)c3)c(C(N)=O)c2N)C1 (stereo not shown) [Compound 16, 1-((1-acryloylpyrrolidin-3-yl)methyl)-5-amino-3-((3,5-dimethoxyphenyl)ethynyl)-1H-pyrazole-4-carboxamide]		10 to 100 nM	10 to 100 nM	< 10 nM	10 to 100 nM			
C=CC(=O)N1CC[C@H](n2nc(C#Cc3cc(Cl)ccc3F)c(C(N)=O)c2N)C1 [Compound 18, (S)-1-(1-acryloylpyrrolidin-3-yl)-5-amino-3-((5-chloro-2-fluorophenyl)ethynyl)-1H-pyrazole-4-carboxamide]		10 to 100 nM	< 10 nM	10 to 100 nM	10 to 100 nM		10 to 100 nM	< 10 nM
C=CC(=O)N1CC[C@H](n2nc(C#Cc3cc(C(=O)NC)ccc3Cl)c(C(N)=O)c2N)C1 [Compound 19, (S)-1-(1-acryloylpyrrolidin-3-yl)-5-amino-3-((2-chloro-5-(methylcarbamoyl)phenyl)ethynyl)-1H-pyrazole-4-carboxamide]		< 10 nM	< 10 nM	< 10 nM	< 10 nM			10 to 100 nM
C=CC(=O)N1CC[C@H](n2nc(C#Cc3cc(OC)cc(C(=O)NC)c3)c(C(N)=O)c2N)C1 [Compound 20, (S)-1-(1-acryloylpyrrolidin-3-yl)-5-amino-3-((3-methoxy-5-(methylcarbamoyl)phenyl)ethynyl)-1H-pyrazole-4-carboxamide]		< 10 nM	< 10 nM	< 10 nM	< 10 nM			10 to 100 nM
C=CC(=O)N1CC[C@H](n2nc(C#Cc3cc(OC)cc(OC)c3)c(C(N)=O)c2NCCOC)C1 [Compound 28, (S)-1-(1-acryloylpyrrolidin-3-yl)-3-((3,5-dimethoxyphenyl)ethynyl)-5-((2-methoxyethyl)amino)-1H-pyrazole-4-carboxamide]		10 to 100 nM	10 to 100 nM	< 10 nM	10 to 100 nM		< 10 nM	< 10 nM
C=CC(=O)N1CC[C@H](n2nc(C#Cc3cc(OC)cc(OC)c3)c(C(N)=O)c2NC2CCN(C)CC2)C1 [Compound 34, (S)-1-(1-acryloylpyrrolidin-3-yl)-3-((3,5-dimethoxyphenyl)ethynyl)-5-((1-methylpiperidin-4-yl)amino)-1H-pyrazole-4-carboxamide]		10 to 100 nM	< 10 nM	< 10 nM				

Source: patent US11572353B2, “Alkynyl-substituted heterocyclic compound, preparation method therefor and medical use thereof” (BEIJING INNOCARE PHARMA TECH CO., LTD., priority 2016, dated 2023)
